Measured values published in patent US20230357242A1, “COMPOUND AS AKT KINASE INHIBITOR” (CHIA TAI TIANQING PHARMACEUTICAL GROUP CO., LTD., priority 2020, published 2023).

Experiments:
LNcap cells = assay: Inhibitory effect on proliferation of LNcap cells (CCK-8, 72 h); assay type: cell-based; settings: Homo sapiens, LNcap cells, CCK-8, read-out: LNcap cells IC50
Method: A dish of LNcap cells (human prostate cancer cells with PTEN deficiency) growing at log phase and in good conditions were taken and digested for 3 min by using 1 mL of pancreatin, then the mixture was added with 4 mL of complete culture medium to terminate digestion, and the cells were added to a centrifuge tube. 20 μL of cells were taken and counted, the required number of cells (mL) was pipetted and centrifuged at 1200 rpm for 5 min, the supernatant was discarded, and an appropriate amount of plating medium (RPMI medium+5% FBS+1% sodium pyruvate+1% glutamine) was added to adjust the cell density to 3×10^4 cells/mL. The cells were seeded on a 96-well plate at 100 μL/well using a multi-channel pipette and cultured in a cell incubator at 37° C., 5% CO2 and saturated humidity. After incubation overnight, compounds were loaded using a nanoliter pipettor, 2 duplicate wells were set for each concentration, and cells without compound were used as negative controls. After 72 h, CCK-8 was added at 10 μL/well for incubation for 4 h, then absorbance was measured at 450 nm with an Envision plate reader, and inhibition rate was calculated. Inhibition rate (%)=(mean value of negative control group−mean value of experimental group)/(mean value of negative control group−mean value of blank group)×100%. A dose-response curve was fitted by four-parameter analysis, with the logarithm of compound concentration as abscissa and inhibition rate as ordinate, so that IC50 was calculated.

[1] = Pharmacokinetic evaluation in mice; assay type: in vivo; parameters: Cl: unit not given here; settings: ICR mice; for AUC(0-inf) / AUC(0-t) / Cmax / Tmax / bioavailability / MRT last / Vd: mouse, plasma; for bioavailability: IG 10 mg/kg vs IV 1 mg/kg, read-out: Absolute bioavailability F %; for MRT last: read-out: MRT(0-t)
Method: ICR mice, weight 18-22 g, after adaption for 3-5 days, were randomly divided into 4 groups of 9 mice, each group was intragastrically (IG) administered with compound 28 or compound 30 at a dose of 10 mg/kg, or intravenously (IV) administered with compound 28 or compound 30 at a dose of 1 mg/kg.
The animals to be tested (ICR mice) were fasted for 12 h before administration and food was provided 4 h after administration, and water was freely drunk before and after the experiment and during the experiment.
(§1) After intragastric administration, about 0.1 mL of blood was taken from eye sockets at 15 min, 30 min, 1 h, 2 h, 3 h, 4 h, 6 h, 8 h, 10 h, and 24 h; after intravenous injection, about 0.1 mL of blood was taken from eye sockets at 5 min, 10 min, 30 min, 1 h, 2 h, 4 h, 6 h, 8 h, 10 h, and 24 h; each mouse was collected at 3-4 time points and 3 mice were collected at each time point, whole blood was collected, placed in centrifuge tubes containing EDTA-K2, and stored at 4° C. within 1 h, and the plasma was separated off by centrifugation at 4° C. and 4000 rpm for 10 min. All the plasma samples were collected and immediately stored at −20° C. for testing. 30 μL of the plasma sample to be tested and a standard curve sample were pipetted and added with 300 μL of acetonitrile solution containing an internal standard (20 ng/mL diazepam), shaken and mixed well for 5 min, and centrifuged at 13,000 rpm for 10 min. 80 μL of supernatant was taken and diluted with 80 μL of ultrapure water. After being mixed well, 2 μL of the resulting sample was taken for liquid chromatography-mass determination, and a chromatogram was recorded.
Oral and intravenous exposure of the compound of the present application was evaluated by in vivo pharmacokinetic experiment in mice.

[2] = Pharmacokinetic evaluation in rats; assay type: in vivo; parameters: Cl: unit not given here; settings: SD rats; for bioavailability / AUC(0-inf) / AUC(0-t) / Cmax / Tmax / MRT last / Vd: rat, plasma; for bioavailability: oral, IG 10 mg/kg vs IV 1 mg/kg, read-out: Absolute bioavailability F %; for MRT last: read-out: MRT(0-t)
Method: SD rats, weight 180-220 g, after adaption for 7 days, were randomly divided into 4 groups of 3 […], each group was intragastrically (IG) administered with compound 28 or compound 30 at a dose of 10 mg/kg, or intravenously (IV) administered with compound 28 or compound 30 at a dose of 1 mg/kg. The animals to be tested (SD rats) were fasted for 12 h before administration and food was provided 4 h after administration, and water was freely drunk before and after the experiment and during the experiment.
as §1, with “h;” for “h; each mouse was collected at 3-4 time points and”, “rats” for “mice”
Oral and intravenous exposure of the compound of the present application was evaluated by in vivo pharmacokinetic experiment in rats.

Nc1ncccc1-c1nc2ccc(-c3cccc(N4CCC(N5CCCC5=O)CC4)c3F)nc2n1-c1ccc(C2(N)CCC2)cc1 [Compound 30]
IC50 (LNcap cells): 4.8 nM | t1/2z ([1]; IG 10 mg/kg): 6.58 h | Cl ([1]; IV 1 mg/kg): 2.08 | t1/2z ([1]; IV 1 mg/kg): 1.48 h | AUC(0-inf) ([1]; po, IG 10 mg/kg): 2880 ng·h/mL | AUC(0-t) ([1]; po, IG 10 mg/kg): 2770 ng·h/mL | Cmax ([1]; po, IG 10 mg/kg): 542 ng/mL | Tmax ([1]; po, IG 10 mg/kg): 2 h | bioavailability ([1]; po): 58.2% | MRT last ([1]; po, IG 10 mg/kg): 5.01 h | AUC(0-inf) ([1]; IV 1 mg/kg): 482 ng·h/mL | AUC(0-t) ([1]; IV 1 mg/kg): 476 ng·h/mL | Vd ([1]; IV 1 mg/kg): 4.43 L/kg | MRT last ([1]; IV 1 mg/kg): 1.04 h | t1/2z ([2]; IG 10 mg/kg): 5.43 ± 1.82 h | Cl ([2]; IV 1 mg/kg): 7.23 ± 0.496 | t1/2z ([2]; IV 1 mg/kg): 7.73 ± 0.440 h | bioavailability [2]: 35.5% | AUC(0-inf) ([2]; po, IG 10 mg/kg): 383 ± 106 ng·h/mL | AUC(0-t) ([2]; po, IG 10 mg/kg): 358 ± 109 ng·h/mL | Cmax ([2]; po, IG 10 mg/kg): 31.2 ± 8.8 ng/mL | Tmax ([2]; po, IG 10 mg/kg): 4.67 ± 1.15 h | MRT last ([2]; po, IG 10 mg/kg): 8.15 ± 0.73 h | AUC(0-inf) ([2]; IV 1 mg/kg): 139 ± 9.21 ng·h/mL | AUC(0-t) ([2]; IV 1 mg/kg): 127 ± 9.69 ng·h/mL | Vd ([2]; IV 1 mg/kg): 80.8 ± 8.9 L/kg | MRT last ([2]; IV 1 mg/kg): 5.57 ± 0.053 h

CC(=O)N1CC2(C1)CN(c1cccc(-c3ccc4nc(-c5cccnc5N)n(-c5ccc(C6(N)CCC6)cc5)c4n3)c1F)C2 [Compound 28]
IC50 (LNcap cells): 3 nM | t1/2z ([1]; IG 10 mg/kg): 5.31 h | Cl ([1]; IV 1 mg/kg): 3.95 | t1/2z ([1]; IV 1 mg/kg): 1.74 h | AUC(0-inf) ([1]; po, IG 10 mg/kg): 896 ng·h/mL | AUC(0-t) ([1]; po, IG 10 mg/kg): 871 ng·h/mL | Cmax ([1]; po, IG 10 mg/kg): 140 ng/mL | Tmax ([1]; po, IG 10 mg/kg): 2 h | bioavailability ([1]; po): 35.4% | MRT last ([1]; po, IG 10 mg/kg): 5.28 h | AUC(0-inf) ([1]; IV 1 mg/kg): 253 ng·h/mL | AUC(0-t) ([1]; IV 1 mg/kg): 246 ng·h/mL | Vd ([1]; IV 1 mg/kg): 9.92 L/kg | MRT last ([1]; IV 1 mg/kg): 1.49 h | t1/2z ([2]; IG 10 mg/kg): 3.93 ± 1.46 h | Cl ([2]; IV 1 mg/kg): 5.75 ± 0.146 | t1/2z ([2]; IV 1 mg/kg): 5.9 ± 2.11 h | bioavailability [2]: 25% | AUC(0-inf) ([2]; po, IG 10 mg/kg): 372 ± 197 ng·h/mL | AUC(0-t) ([2]; po, IG 10 mg/kg): 362 ± 195 ng·h/mL | Cmax ([2]; po, IG 10 mg/kg): 32.6 ± 12.4 ng/mL | Tmax ([2]; po, IG 10 mg/kg): 4.67 ± 1.15 h | MRT last ([2]; po, IG 10 mg/kg): 7.38 ± 0.43 h | AUC(0-inf) ([2]; IV 1 mg/kg): 174 ± 4.37 ng·h/mL | AUC(0-t) ([2]; IV 1 mg/kg): 145 ± 11.1 ng·h/mL | Vd ([2]; IV 1 mg/kg): 48.8 ± 16.8 L/kg | MRT last ([2]; IV 1 mg/kg): 2.12 ± 0.099 h
